Measurements reported in publication PMC7753975 (Journal of medicinal chemistry, 2015).

tested on: NCI-60 human tumor cell lines; assay: NCI-60 five-dose assay, mean graph midpoint; type: cell-based; settings: Homo sapiens, read-out: cytotoxicity (GI50, μM) MGM, mean graph midpoint of growth inhibition from 5 dose assay, ranging from 10^−8–10^−4 M

Compared with CC[C@@]1(O)C(=O)OCc2c1cc1n(c2=O)Cc2cc3c(CN(C)C)c(O)ccc3nc2-1 [Compound 2, topotecan, reference compound], O=C1c2ccccc2-c2c1c1ccc(Cl)cc1c(=O)n2C[C@H](O)CO [Compound 50, (S)-3-Chloro-5,6-dihydro-6-(2,3-dihydroxypropyl)-5,11-dioxo-11H-indeno[1,2-c]isoquinoline] is 28-fold higher in GI50: 0.0405 ± 0.0187 µM for the first, 1.12 µM for the second.

Compared with O=C1c2ccccc2-c2c1c1ccc(F)cc1c(=O)n2CCCn1ccnc1 [Compound 60, 3-Fluoro-5,6-dihydro-6-(3-(1H-imidazol-1-yl)propyl)-5,11-dioxo-11H-indeno[1,2-c]isoquinoline], O=C1c2ccccc2-c2c1c1ccc(I)cc1c(=O)n2CCCn1ccnc1 [Compound 62, 5,6-Dihydro-6-(3-(1H-imidazol-1-yl)propyl)-3-iodo-5,11-dioxo-11H-indeno[1,2-c]isoquinoline] is higher in GI50: 0.692 µM for the first, no less than 0.944 µM for the second.

O=C1c2ccccc2-c2c1c1cc(C(F)(F)F)ccc1c(=O)n2CCCn1ccnc1 [Compound 63, 2-(Trifluoromethyl)-5,6-dihydro-6-(3-(1H-imidazol-1-yl)-propyl)-5,11-dioxo-11H-indeno[1,2-c]isoquinoline] and O=C1c2ccccc2-c2c1c1ccc(C(F)(F)F)cc1c(=O)n2CCCn1ccnc1 [Compound 64, 3-(Trifluoromethyl)-5,6-dihydro-6-(3-(1H-imidazol-1-yl)-propyl)-5,11-dioxo-11H-indeno[1,2-c]isoquinoline] cannot be ordered by GI50: no less than 0.944 µM for the first, 1.07 µM for the second.

Compared with O=C1c2ccccc2-c2c1c1ccc(F)cc1c(=O)n2CCCN1CCOCC1 [Compound 68, 3-Fluoro-5,6-dihydro-6-(3-morpholinopropyl)-5,11-dioxo-11H-indeno[1,2-c]isoquinoline], O=C1c2ccccc2-c2c1c1ccc(Cl)cc1c(=O)n2CCCN1CCOCC1 [Compound 69, 3-Chloro-5,6-dihydro-6-(3-morpholinopropyl)-5,11-dioxo-11H-indeno[1,2-c]isoquinoline] is 1.5-fold higher in GI50: 2.75 µM for the first, 4.17 µM for the second.

same assay, conditions: human

O=C1c2ccccc2-c2c1c1ccc(I)cc1c(=O)n2CCCn1ccnc1 [Compound 62, 5,6-Dihydro-6-(3-(1H-imidazol-1-yl)propyl)-3-iodo-5,11-dioxo-11H-indeno[1,2-c]isoquinoline] gave a GI50 of 1.62 µM.
